Source: publication PMC3161630, “Targeted Chemotherapy Using a Cytotoxic Somatostatin Conjugate to Inhibit Tumor Growth and Metastasis in Nude Mice” (Clinical Medicine. Oncology, 2008)

Columns and labels:
[1] = test system: non-transfected CHO cells; assay: Ligand-receptor binding assay, non-transfected CHO cells
Procedure: The assay was performed as a modification of the one previously described. The binding buffer contained Dulbecco’s Modified Eagle’s Medium (DMEM), 50 mM HEPES, 2 mM glutamine, 11.5 mM glucose, 1% bovine serum albumin (BSA) and 5 mM sodium pyruvate. The binding reactions took place in 1.5 ml eppendorf tubes containing 70–100 pM of [^125I]Tyr^11-SST-14 from PerkinElmer (Boston, MA 02118–2512), 1–1.5 × 10^5 cells and the tested SST analogs (10^−5 to 10^−13 M) for a total volume of 300 μl. These were incubated at room temperature for 50–60 minutes and centrifuged for 1–2 min at 9,000 g. The cell pellets were washed twice with phosphate-buffered saline (PBS) and counted for total radioactivity in a Titertek gamma counter (Huntsville, AL). The analyses were done using GraphPad Prism 4.0 (San Diego, […]). For further internalization, cells were then re-suspended and incubated in HBSS (pH4, acetic acid) on ice for 10 min, washed with cold PBS and then re-counted for radioactivity. Due to the radioactivity of membrane-bound receptors being released by the acid wash, the remaining radioactivity represents the internalized peptide.

[2] = test system: prostate cancer PC-3 cells; assay: Cell proliferation assay (MTT), PC-3; format: cell-based, human; conditions: table: mean ± SEM (n)
Procedure: (§1) The CHO-R1 and CHO-R2 cell lines, which were transfected with rat SSTR1 and SSTR2, respectively, were a kind gift from Dr. Agnes Schonbrunn (University of Texas—Houston, Houston, TX). Cells were cultured in F-12 medium containing 10% fetal calf serum. All other human tumor cell lines, including neuroblastoma IMR32, leukemia MOLT-4, pancreatic cancer CFPAC-1, prostate cancer PC-3 were purchased from ATCC (American Type Culture Collection, Manassas, VA). Human pancreatic carcinoid BON cells were a kind gift from Dr. Courtney Townsend (University of Texas—Galveston) and cultured as described previously.
(§2) The kits for the cell proliferation assay (MTT Assay) were purchased from Promega (Madison, WI) and the protocol was the same as described previously.

[3] = test system: pancreatic cancer CFPAC-1 cells; assay: Cell proliferation assay (MTT), CFPAC-1; format: cell-based, human; conditions: table: mean ± SEM (n)
Procedure: as §1, §2

[4] = test system: leukemia MOLT-4 cells; assay: Cell proliferation assay (MTT), MOLT-4; format: cell-based, human; conditions: table: mean ± SEM (n)
Procedure: as §1, §2

[5] = test system: pancreatic carcinoid BON cells; assay: Cell proliferation assay (MTT), BON; format: cell-based, human; conditions: table: mean ± SEM (n)
Procedure: as §1, §2

[6] = test system: pancreatic carcinoid BON tumors; assay: Tumor growth, continuous drug-releasing pellets, BON tumors; format: in vivo, nude mice; conditions: 5 mg/pellet
Procedure: The cytotoxic CPT-SST conjugate JF-10-81 was synthesized as described previously. Continuous drug-releasing pellets containing JF-10-81 (5 mg/pellet) formulated to release drug for 60 days, were made by Innovative Research of America (Sarasota, FL).
Male nude mice, 5–7 weeks of age upon arrival, were purchased from the National Cancer Institute (NCI, Frederik, MD). The animal study was approved by the Tulane University Health Sciences Center Institutional Animal Care and Use Committee (IACUC).
The tumor tissue segments, grown from CFPAC-1, IMR32, MOLT-4 and BON cells injected into nude mice, were s.c. implanted into the flanks of nude mice as described previously. All the tumors were passaged from mouse to mouse. Tumor-carrying mice then were implanted with continuous drug-releasing pellets containing 5 mg of JF-10-81.
For treatments of pancreatic cancer CFPAC-1 tumors, mice were separated into 2 groups. Each mouse in the control group was implanted with a placebo pellet. Each mouse in the test group was implanted with a pellet containing JF-10-81 (5 mg/pellet) with a drug-release time of 60 days. Tumor volumes were measured and bodyweights were taken once a week. The treatment for all other tumors (BON, IMR32 and MOLT-4) was the same as above.

[7] = test system: neuroblastoma IMR32 cells; assay: Cell proliferation assay (MTT), IMR32; format: cell-based, human; conditions: table: mean ± SEM (n)
Procedure: as §1, §2

| Structure (SMILES) | affinity to the non-transfected CHO cells [1] | EC50 ([2]; Homo sapiens, PC-3, MTT assay) | EC50 ([2]; MTT assay) | EC50 ([3]; Homo sapiens, CFPAC-1, MTT assay) | EC50 ([3]; MTT assay) | EC50 ([4]; Homo sapiens, MOLT-4, MTT assay) | EC50 ([4]; MTT assay) | EC50 ([5]; Homo sapiens) | EC50 [5] | Inhibition (%) ([6]; 42 days, vs placebo) | percentage increase of tumor volumes ([6]; vs initial) | EC50 ([7]; Homo sapiens, IMR-32, MTT assay) | EC50 ([7]; MTT assay) |
| --- | --- | --- | --- | --- | --- | --- | --- | --- | --- | --- | --- | --- | --- |
| C[C@H](N)C(=O)NCC(=O)N[C@H]1CSSC[C@@H](C(=O)O)NC(=O)[C@H](CO)NC(=O)[C@H]([C@@H](C)O)NC(=O)[C@H](Cc2ccccc2)NC(=O)[C@H]([C@@H](C)O)NC(=O)[C@H](CCCCN)NC(=O)[C@H](Cc2c[nH]c3ccccc23)NC(=O)[C@H](Cc2ccccc2)NC(=O)[C@H](Cc2ccccc2)NC(=O)[C@H](CC(N)=O)NC(=O)[C@H](CCCCN)NC1=O [SST-14] | no affinity | – | – | – | – | – | – | – | – | – | – | – | – |
| CC[C@@]1(O)C(=O)OCc2c1cc1n(c2=O)Cc2cc3ccccc3nc2-1 [CPT, camptothecin] | – | 0.0208 µM | 0.0208 ± 0.00282 µM | 0.0255 µM | 0.0255 ± 0.0056 µM | 0.002 µM | 0.00196 ± 0.00032 µM | 0.171 µM | 0.171 ± 0.0146 µM | 42% | 278% | 0.0028 µM | 0.00282 ± 0.00014 µM |
